Measured values reported in US4420488A, “Quaternary 1,1-diphenyl-4-pyrrolidinium-2-butyne salts, a process for their production and medicaments containing these compounds” (Ludwig Heumann & Co. GmbH, priority 1980, dated 1983).
Like-named read-outs stand apart in the source and are kept apart here.

Columns and labels:
ACH = test: Broncholysis (guinea pig), ACH (Konzett, Rossler); format: in vivo; details: Cavia porcellus, iv
Description: (§1) The following Table summarizes the results of pharmacological studies conducted with the compound according to the invention, 1,1-diphenyl-4-pyrrolidinyl-2-butyne-1-ol-N-methyl ammonium bromide, and with butynoline phosphate as the comparison substance.
(§2) ACH 30 ACH 60 Rossler, R.,
(§3) Hi 500 Hi 1000 Arch. exp. Pharmacol.

Hi = test: Broncholysis (guinea pig), Hi (Konzett, Rossler); format: in vivo; details: Cavia porcellus, iv
Description: as §1, §2, §3

stress ulcer = test: Anti-ulcerogenic effect, stress ulcer (Takagi, Okabe); format: in vivo; details: po, i.g.
Description: as §1
effect i.g. i.g. Jap. J. Pharmac. 18,

[1] = Inhibition of the carbachol-induced secretion of saliva (rat), cholinolytic side effects (mod. Brown, Quinton); details: in vivo, po, i.g.
Description: (§4) As already mentioned, the compounds according to the invention show better pharmacological properties than the known butynoline phosphate, particularly in regard to the broncholytic and anti-ulcerogenic effect obtainable therewith. Tests relating to inhibition of the carbachol-induced secretion of saliva and mydriasis have shown that the compounds according to the invention have fewer side effects than the known butynoline phosphate.
as §1
i.g. i.g. Brown, D. M., Quinton,
24 9.8 R. M., Brit. J. Pharma-

[2] = Mydriasis, cholinolytic side effects (Pulewka); details: in vivo, po, i.g.
Description: as §4, §1
i.g. i.g. exp. Pharmacol.

[3] = molecular target: T1, Mee-ileum (Cavia porcellus); test: Spasmolytic effect in vitro (Mee-ileum) (Van Rossum); details: ACH, read-out: Spasmolytic effect in vitro pA2 (ACH) (converted)
T1 construct: in vitro (Mee-ileum); from tissue; host or cells: isolated ileum ('Mee-ileum', read as guinea pig ileum)
Description: as §1
8.0 8.2 Arch. Int. Pharmaco-

[4] = test system: carbachol-induced gastric secretion; test: Inhibition of the carbachol-induced gastric secretion (Heidenhain cat) (Engler, Fritschi); format: in vivo; details: Felis catus, po, i.g.
Description: as §1
0.3 0.3 Schmiedeberg's Arch.
(Heidenhain cat) Pharmacol. 297,

[5] = in words; cited from earlier work

T1 sequence (H0W1Z3 1-590): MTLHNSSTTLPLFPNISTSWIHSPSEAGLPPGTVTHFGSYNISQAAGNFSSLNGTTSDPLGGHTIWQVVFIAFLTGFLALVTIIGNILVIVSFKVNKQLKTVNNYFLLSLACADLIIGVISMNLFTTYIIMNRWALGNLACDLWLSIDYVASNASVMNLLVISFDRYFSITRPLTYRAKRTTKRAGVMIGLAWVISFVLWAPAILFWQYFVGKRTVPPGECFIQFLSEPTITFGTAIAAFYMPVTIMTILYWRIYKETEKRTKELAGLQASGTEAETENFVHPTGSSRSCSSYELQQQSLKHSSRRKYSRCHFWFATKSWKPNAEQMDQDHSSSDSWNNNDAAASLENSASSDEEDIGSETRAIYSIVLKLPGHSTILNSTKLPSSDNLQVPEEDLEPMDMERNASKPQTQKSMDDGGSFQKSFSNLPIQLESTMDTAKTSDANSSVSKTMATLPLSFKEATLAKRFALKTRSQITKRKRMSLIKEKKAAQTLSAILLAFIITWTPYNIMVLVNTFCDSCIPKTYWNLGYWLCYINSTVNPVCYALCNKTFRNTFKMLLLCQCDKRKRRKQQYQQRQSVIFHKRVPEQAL

SMILES | ED50 (ACH) [mg/kg] | ED50 (Hi) [mg/kg] | ED50 (stress ulcer) [mg/kg] | ED50 [1] [mg/kg] | ED50 [2] [mg/kg] | Kb [3] [nM] | ED50 ([4]; read-out: Inhibition of the carbachol-induced gastric secretion ED50) [mg/kg] | ED50 ([4]; butynoline phosphate column, read-out: Inhibition of the carbachol-induced gastric secretion ED50 (ACH)) [mg/kg] | pharmacological activity (known) [5]
C[N+]1(CC#CC(O)(c2ccccc2)c2ccccc2)CCCC1 [1,1-diphenyl-4-pyrrolidinyl-2-butyne-1-ol-N-methyl ammonium bromide] | 0.03 | 0.5 | 25 | 24 | 128 | 10 | 0.3 | – | –
OC(C#CCN1CCCC1)(c1ccccc1)c1ccccc1 [Butynoline phosphate, phosphate of 1,1-diphenyl-4-pyrrolidino-2-butyne-1-ol] | 0.06 | 1 | 150 | 9.8 | 16 | 6.31 | – | 0.3 | anti-cholinergic spasmolytic and anti-ulcerogenic activity
